Key:
Assay type in all cases: in vivo
[1] = test system: crabgrass, large (large crabgrass, Digitaria sanguinalis); assay: Test A pre-/postemergence: crabgrass, large
Summary of the method: (§1)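 Rating scale 0–100 (100 = complete control), visual, ~10 days after application in the greenhouse. Applications: preemergence directed soil spray; postemergence at 1–2 leaves.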

[2] = test system: morningglory (Ipomoea spp.); assay: Test A pre-/postemergence: morningglory
Summary of the method: as §1

[3] = test system: velvetleaf (Abutilon theophrasti); assay: Test A pre-/postemergence: velvetleaf
Summary of the method: as §1

[4] = test system: blackgrass (Alopecurus myosuroides); assay: Test C pre-/postemergence: blackgrass
Summary of the method: (§2)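 Preemergence on seeds in loam/sand, postemergence on 2–18 cm (1–4-leaf) plants in peat-based medium; compounds in non-phytotoxic solvent with surfactant. After 13–15 days in greenhouse, visual rating versus controls, 0 (no effect) to 100 (complete control).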

[5] = test system: bromegrass, downy (downy bromegrass, Bromus tectorum); assay: Test C pre-/postemergence: bromegrass, downy
Summary of the method: as §2

[6] = test system: galium (catchweed bedstraw, Galium aparine); assay: Test C pre-/postemergence: galium
Summary of the method: as §2

[7] = test system: johnsongrass (Sorghum halepense); assay: Test C pre-/postemergence: johnsongrass
Summary of the method: as §2

[8] = test system: morningglory (Ipomoea coccinea); assay: Test C pre-/postemergence: morningglory
Summary of the method: as §2

[9] = test system: nightshade (eastern black nightshade, Solanum ptycanthum); assay: Test C pre-/postemergence: nightshade; details: Preemergence
Source text: Seeds of plant species selected from blackgrass (Alopecurus myosuroides), bromegrass, downy (downy bromegrass, Bromus tectorum), foxtail, green (green foxtail, Setaria viridis), ryegrass, Italian (Italian ryegrass, Lolium multiflorum), winter wheat (Triticum aestivum), wild oat (Avena fatua), galium (catchweed bedstraw, Galium aparine), bermudagrass (Cynodon dactylon), surinam grass (Brachiaria decumbens), cocklebur (common cocklebur, Xanthium strumarium), corn (Zea mays), large crabgrass (Digitaria sanguinalis), woolly cupgrass (Eriochloa villosa), foxtail, giant (giant foxtail, Setaria faberii), goosegrass (Eleusine indica), johnsongrass (Sorghum halepense), kochia (Kochia scoparia), lambsquarters (Chenopodium album), morningglory (Ipomoea coccinea), nightshade (eastern black nightshade, Solanum ptycanthum), nutsedge, yellow (yellow nutsedge, Cyperus esculentus), pigweed (Amaranthus retroflexus), ragweed (common ragweed, Ambrosia elation), soybean (Glycine max), common (oilseed) sunflower (Helianthus annuus), Russian thistle (Salsola kali) and velvetleaf (Abutilon theophrasti) were planted into a blend of loam soil and sand and treated preemergence with test chemicals formulated in a non-phytotoxic solvent mixture which included a surfactant.
At the same time, plants selected from these crop and weed species and also barley (winter barley, Hordeum vulgare), canarygrass (Phalaris minor), chickweed (common chickweed, Stellaria media) windgrass (Apera spica-venti) and deadnettle (henbit deadnettle, Lamium amplexicaule) were planted in pots containing Redi-Earth® planting medium (Scotts Company, 14111 Scottslawn Road, Marysville, Ohio 43041) comprising spaghnum peat moss, vermiculite, wetting agent and starter nutrients and treated with postemergence applications of test chemicals formulated in the same manner. Plants ranged in height from 2 to 18 cm (1- to 4-leaf stage) for postemergence treatments.
Treated plants and controls were maintained in a greenhouse for 13 to 15 days, after which time all species were compared to controls and visually evaluated. Plant response ratings, summarized in Table C, are based on a scale of 0 to 100 where 0 is no effect and 100 is complete control. A dash (-) response means no test result.

[10] = test system: foxtail, giant (giant foxtail, Setaria faberii); assay: Test A pre-/postemergence: foxtail, giant; details: for Foxtail, Giant plant response rating: Postemergence; for Plant response rating, Foxtail, Giant: Preemergence
Summary of the method: as §1

[11] = Postemergence, 1000 g ai/ha, visual rating on 0 to 100 scale (0 no effect, 100 complete control), approximately ten days
[12] = Preemergence, 1000 g ai/ha, 0 to 100 scale, 0 is no effect, 100 is complete control
[13] = Postemergence, 31 g ai/ha, scale 0 to 100 (0 no effect, 100 complete control)
[14] = Postemergence, 62 g ai/ha, scale 0 to 100 (0 no effect, 100 complete control)
[15] = Postemergence, 125 g ai/ha, scale 0 to 100, 0 no effect, 100 complete control
[16] = Postemergence, 250 g ai/ha, scale 0 to 100
[17] = Preemergence, 31 g ai/ha, scale of 0 to 100, 0 is no effect, 100 is complete control
[18] = Preemergence, 62 g ai/ha, scale 0 to 100, 0 no effect, 100 complete control
[19] = Preemergence, 125 g ai/ha, scale 0 to 100, 0 no effect, 100 complete control
[20] = Preemergence, 250 g ai/ha, scale 0 to 100, 0 no effect, 100 complete control
[21] = Preemergence, 62 g ai/ha, scale of 0 to 100, 0 is no effect, 100 is complete control
[22] = 31 g ai/ha, scale of 0 to 100, 0 is no effect, 100 is complete control
[23] = 62 g ai/ha, scale of 0 to 100, 0 is no effect, 100 is complete control
[24] = 125 g ai/ha, scale 0 to 100, 0 no effect, 100 complete control
[25] = 250 g ai/ha, scale 0 to 100, 0 no effect, 100 complete control
[26] = Postemergence, 125 g ai/ha, 0 to 100 scale, 0 is no effect, 100 is complete control
[27] = Postemergence, 500 g ai/ha, visual rating on 0 to 100 scale (0 no effect, 100 complete control), approximately ten days
[28] = Preemergence, 125 g ai/ha, 0 to 100 scale (0 no effect, 100 complete control)
[29] = Preemergence, 500 g ai/ha, 0 to 100 scale, 0 is no effect, 100 is complete control

## Cc1nn(-c2ccc(C(F)(F)F)cn2)nc1Cc1cccc(C(F)(F)F)c1 [Compound 106]
[1]; [11]
  Crabgrass, Large plant response rating: 80
[1]; [12]
  Crabgrass, Large plant response rating: 90
[2]; [11]
  Morningglory plant response rating: 100
[2]; [12]
  Morningglory plant response rating: 20
[3]; [11]
  Velvetleaf plant response rating: 70
[3]; [12]
  Velvetleaf plant response rating: 0
[4]; [13]
  Plant response rating, Blackgrass: 30
[4]; [14]
  Plant response rating, Blackgrass: 40
[4]; [15]
  Plant response rating, Blackgrass: 45
[4]; [16]
  Plant response rating, Blackgrass: 60
[4]; [17]
  Plant response rating, Blackgrass: 50
[4]; [18]
  Plant response rating, Blackgrass: 50
[4]; [19]
  Plant response rating, Blackgrass: 90
[4]; [20]
  Plant response rating, Blackgrass: 95
[5]; [13]
  Plant response rating, Bromegrass, Downy: 30
[5]; [14]
  Plant response rating, Bromegrass, Downy: 35
[5]; [15]
  Plant response rating, Bromegrass, Downy: 40
[5]; [16]
  Plant response rating, Bromegrass, Downy: 40
[5]; [17]
  Plant response rating, Bromegrass, Downy: 0
[5]; [18]
  Plant response rating, Bromegrass, Downy: 5
[5]; [19]
  Plant response rating, Bromegrass, Downy: 40
[5]; [20]
  Plant response rating, Bromegrass, Downy: 60
[6]; [13]
  Plant response rating, Galium: 65
[6]; [14]
  Plant response rating, Galium: 65
[6]; [15]
  Plant response rating, Galium: 80
[6]; [16]
  Plant response rating, Galium: 80
[6]; [17]
  Plant response rating, Galium: 5
[6]; [21]
  Plant response rating, Galium: 10
[6]; [19]
  Plant response rating, Galium: 60
[6]; [20]
  Plant response rating, Galium: 90
[7]; [13]
  Plant response rating, Johnsongrass: 0
[7]; [14]
  Plant response rating, Johnsongrass: 15
[7]; [15]
  Plant response rating, Johnsongrass: 40
[7]; [16]
  Plant response rating, Johnsongrass: 55
[7]; [17]
  Plant response rating, Johnsongrass: 0
[7]; [21]
  Plant response rating, Johnsongrass: 20
[7]; [19]
  Plant response rating, Johnsongrass: 75
[7]; [20]
  Plant response rating, Johnsongrass: 85
[8]; [13]
  Plant response rating, Morningglory: 0
[8]; [14]
  Plant response rating, Morningglory: 20
[8]; [15]
  Plant response rating, Morningglory: 40
[8]; [16]
  Plant response rating, Morningglory: 40
[8]; [17]
  Plant response rating, Morningglory: 0
[8]; [21]
  Plant response rating, Morningglory: 0
[8]; [19]
  Plant response rating, Morningglory: 10
[8]; [20]
  Plant response rating, Morningglory: 60
[9]; [22]
  Plant response rating, Nightshade: 0
[9]; [23]
  Plant response rating, Nightshade: 75
[9]; [24]
  Plant response rating, Nightshade: 90
[9]; [25]
  Plant response rating, Nightshade: 100

## FC(F)Oc1nn(-c2ccc(C(F)(F)F)cc2)nc1Cc1ccnc(C(F)(F)F)c1 [Compound 26]
[1]; [26]
  Crabgrass, Large plant response rating: 90
[1]; [27]
  Crabgrass, Large plant response rating: 90
[1]; [28]
  Plant response rating, Crabgrass, Large: 100
[1]; [29]
  Plant response rating, Crabgrass, Large: 100
[10]; 125 g ai/ha, 0 to 100 scale, 0 is no effect, 100 is complete control
  Foxtail, Giant plant response rating: 90
[10]; 500 g ai/ha, visual rating on 0 to 100 scale (0 no effect, 100 complete control), approximately ten days
  Foxtail, Giant plant response rating: 90
[10]; 125 g ai/ha, 0 to 100 scale (0 no effect, 100 complete control)
  Plant response rating, Foxtail, Giant: 100
[10]; 500 g ai/ha, 0 to 100 scale, 0 is no effect, 100 is complete control
  Plant response rating, Foxtail, Giant: 100
[2]; [26]
  Morningglory plant response rating: 100
[2]; [27]
  Morningglory plant response rating: 100
[2]; [28]
  Plant response rating, Morningglory: 80
[2]; [29]
  Plant response rating, Morningglory: 80
[3]; [26]
  Velvetleaf plant response rating: 100
[3]; [27]
  Velvetleaf plant response rating: 100
[3]; [28]
  Plant response rating, Velvetleaf: 80
[3]; [29]
  Plant response rating, Velvetleaf: 90
[4]; [13]
  Plant response rating, Blackgrass: 30
[4]; [14]
  Plant response rating, Blackgrass: 35
[4]; [15]
  Plant response rating, Blackgrass: 70
[4]; [16]
  Plant response rating, Blackgrass: 90
[4]; [17]
  Plant response rating, Blackgrass: 55
[4]; [18]
  Plant response rating, Blackgrass: 90
[4]; [19]
  Plant response rating, Blackgrass: 90
[4]; [20]
  Plant response rating, Blackgrass: 90
[5]; [13]
  Plant response rating, Bromegrass, Downy: 15
[5]; [14]
  Plant response rating, Bromegrass, Downy: 30
[5]; [15]
  Plant response rating, Bromegrass, Downy: 40
[5]; [16]
  Plant response rating, Bromegrass, Downy: 50
[5]; [17]
  Plant response rating, Bromegrass, Downy: 5
[5]; [18]
  Plant response rating, Bromegrass, Downy: 45
[5]; [19]
  Plant response rating, Bromegrass, Downy: 50
[5]; [20]
  Plant response rating, Bromegrass, Downy: 85
[6]; [13]
  Plant response rating, Galium: 50
[6]; [14]
  Plant response rating, Galium: 55
[6]; [15]
  Plant response rating, Galium: 75
[6]; [16]
  Plant response rating, Galium: 75
[6]; [17]
  Plant response rating, Galium: 50
[6]; [21]
  Plant response rating, Galium: 75
[6]; [19]
  Plant response rating, Galium: 100
[6]; [20]
  Plant response rating, Galium: 100
[7]; [13]
  Plant response rating, Johnsongrass: 15
[7]; [14]
  Plant response rating, Johnsongrass: 15
[7]; [15]
  Plant response rating, Johnsongrass: 25
[7]; [16]
  Plant response rating, Johnsongrass: 40
[7]; [17]
  Plant response rating, Johnsongrass: 15
[7]; [21]
  Plant response rating, Johnsongrass: 55
[7]; [19]
  Plant response rating, Johnsongrass: 95
[7]; [20]
  Plant response rating, Johnsongrass: 98
[9]; [22]
  Plant response rating, Nightshade: 55
[9]; [23]
  Plant response rating, Nightshade: 90
[9]; [24]
  Plant response rating, Nightshade: 98
[9]; [25]
  Plant response rating, Nightshade: 98

Reference: patent US9302999B2, “Substituted triazoles as herbicides” (E. I. DU PONT DE NEMOURS AND COMPANY, priority 2012, dated 2016)
